From US9034863B2, “Compositions and methods for inhibiting entry of a hepatic virus” (The Board of Trustees of the University of Illinois, priority 2008, dated 2015)

How the values were obtained:
HCVcc JFH-1 = assay: HCV binding versus internalization, cell-associated HCV RNA (FIG. 1); assay type: cell-based, Hepatitis C virus (HCV)
Protocol: Monolayers of human hepatoma cell line Huh7 were inoculated with HCVcc JFH-1 (cell culture produced HCV JFH-1, which is a specific HCV clone isolated from a Japanese Fulminant Hepatitis patient) at an MOI of 0.1 FFU/cell for 6 hours in the presence or absence of increasing concentrations of ezetimibe. Cultures were washed extensively and cell associated RNA was collected 6 and 30 hours post-infection (p.i.) to determine the amount of bound and internalized virus, respectively. […] Results are graphed as means±s.e.m. for triplicate samples. The data presented are representative of three independent experiments. Assay background (i.e., HCV RNA level detected in uninfected samples) is equal to ˜0.5−1.0×10^2 copies/μg total cellular RNA. Significant reduction in HCV RNA levels relative to mock-treated cultures is denoted by a single asterisk (p<0.05, one-way ANOVA and Tukey's post hoc t test).
To decipher whether ezetimibe inhibits HCV cellular binding or subsequent internalization, cell-associated HCV RNA and protein in mock- and ezetimibe-treated HCVcc-infected cultures was examined.

Huh7 cells = assay: Cell proliferation assay (cellular ATP, […] Plus); assay type: cell-based, human; conditions: increasing doses
Description: The […] Plus Cell Proliferation assay kit (Lonza, Walkersville, Md.), which incorporates bioluminescent detection of cellular ATP as a measure of cell viability and proliferation, was used according to the manufacturer's instructions. Briefly, mock-treated and drug-treated cultures were lysed in Cell Lysis reagent for […]. One hundred μl of culture medium was transferred to white 96-well plates (BD Biosciences) containing ATP detection reagent and luminescence, expressed as relative light units (RLU), was measured (Fluostar OPTIMA). To assess drug-induced cellular toxicity, a bioluminescence-based assay (The TOXILIGHT BioAssay Kit, Lonza) that measures adenylate kinase (AK) released from damaged cells was used as per the manufacturer's instructions. […] One hundred μl of AK detection reagent was then added to each well, and luminescence (RLU) was measured (Fluostar OPTIMA).
To ensure that the inhibition observed was not due to ezetimibe-induced changes in cell proliferation or cytotoxicity, cellular ATP was measured as a read-out of Huh7 cell viability and proliferation and cellular toxicity by adenylate kinase release following treatment with increasing doses of ezetimibe. […] Furthermore, to test the specificity of the observed HCV inhibition, the effect of ezetimibe on entry of another flavivirus, Dengue virus (DNV), was assessed.

wild-type HCVcc^JFH-1 = assay: Infection of Huh7 cells with wild-type HCVcc JFH-1, intracellular HCV RNA; assay type: cell-based, Hepatitis C virus (HCV); conditions: 30 μM, 48 hours post-infection
Protocol: Studies have shown that a G451R mutation in the viral envelope glycoprotein (E2) results in HCV virions of […] density and faster infection kinetics (thong, et al. (2006) J. Virol. 80:11082-11093). […] Thus, if ezetimibe was blocking HCV entry via an SR-B1 mediated mechanism, it would be expected that the mutant G451R virus would be less susceptible to the effects of ezetimibe. As a result, experiments were performed to assess the antiviral efficacy of ezetimibe against the SR-B1-independent HCVcc^G451R virus. Monolayers of Huh7 cells were inoculated with either wild-type HCVcc^JFH-1 or HCVcc^G451R at an MOI of 0.01 FFU/cell for 12 hours. Ezetimibe treatment at concentrations of 15 or 30 μM was initiated (and then continued) either 6 hours prior to infection, during the 12 hour incubation of the virus on the cells, or immediately following the 12 hour viral inoculation period. Ezetimibe at a concentration of 30 μM inhibited HCVcc^JFH-1 infection approximately 10-fold at 48 hours post-infection.

## O=C1[C@H](CC[C@H](O)c2ccc(F)cc2)[C@@H](c2ccc(O)cc2)N1c1ccc(F)cc1 [ezetimibe, 1-(4-fluorophenyl)-(3R)-[3-(4-fluorophenyl)-(3S)-hydroxypropyl]-(45)-(4-hydroxyphenyl)-2-azetidinone]
HCVcc JFH-1; 6 hours p.i.
  virion binding (cell-associated HCV RNA): not binding
HCVcc JFH-1; later time points (30 hours p.i.)
  HCV entry/internalization (HCV RNA expansion, de novo NS5A expression): inhibits HCV internalization
Huh7 cells
  cell proliferation (cellular ATP): did not inhibit cell proliferation
wild-type HCVcc^JFH-1
  inhibition of HCVcc JFH-1 infection: approximately 10 fold
